Results from patent US9550796B2, “Pyrrolopyrrolone derivatives and their use as BET inhibitors” (NOVARTIS AG, priority 2013, dated 2017).

Experiments:
MV-4-11 = test: Cell growth inhibition assay (CellTiter-Glo), MV-4-11; format: cell-based, human; conditions: MV-4-11 cells, 4 days; for GI50: Homo sapiens, MV4-11, 96 h, half-maximal growth inhibition; for MV-4-11 TGI: total growth inhibition
In short: (§1)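 ATP content was quantified with CellTiter-Glo after 4-day compound treatment (top 10 μM, 3-fold steps) at 37 °C. Readings were background- and day-0-corrected, scaled so vehicle equals 100% and medium equals −100%. Four-parameter fits gave half-maximal (IC50) and total growth inhibition concentrations.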

BRD4 = BRD4 (Homo sapiens (Human), UniProt O60885); test: TR-FRET in-vitro binding assay for BRD4; conditions: 45 nM His-Brd4(44-477), acetyl-histone H4 (AcK 5, 8, 12, 16) peptide
In short: (§2)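 TR-FRET binding read after 35 min incubation at 30° C. Compounds dispensed from 90% DMSO solutions and tested at 8 concentrations in a 13.55 μL total reaction volume.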

CREBBP = CREBBP (Homo sapiens (Human), UniProt Q92793); test: AlphaScreen in-vitro binding assay for CREBBP; conditions: 324 nM His-CREBBP (1081-1197), acetyl-histone H4 (AcK 5, 8, 12) peptide
Chain of CREBBP (Q92793 1081-1197): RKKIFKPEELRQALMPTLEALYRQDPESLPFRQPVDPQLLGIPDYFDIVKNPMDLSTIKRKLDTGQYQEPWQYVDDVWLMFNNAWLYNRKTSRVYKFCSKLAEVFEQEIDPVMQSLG
In short: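 IC50 values were derived by non-linear regression of percent inhibition across 8 compound concentrations. Protein was His-tagged CREBBP bromodomain (1081-1197), peptide acetyl-histone H4 (AcK 5, 8, 12), in HEPES pH 7.5 buffer. Read-out was AlphaScreen with Ni-chelate acceptor and streptavidin donor beads, 35 min at 30° C then 60 min at RT.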

BRD3 = BRD3 (Homo sapiens (Human), UniProt Q15059); test: TR-FRET in-vitro binding assay for BRD3; conditions: 45 nM His-Brd3(20-477), acetyl-histone H4 (AcK 5, 8, 12, 16) peptide
Chain of BRD3 (Q15059 20-477): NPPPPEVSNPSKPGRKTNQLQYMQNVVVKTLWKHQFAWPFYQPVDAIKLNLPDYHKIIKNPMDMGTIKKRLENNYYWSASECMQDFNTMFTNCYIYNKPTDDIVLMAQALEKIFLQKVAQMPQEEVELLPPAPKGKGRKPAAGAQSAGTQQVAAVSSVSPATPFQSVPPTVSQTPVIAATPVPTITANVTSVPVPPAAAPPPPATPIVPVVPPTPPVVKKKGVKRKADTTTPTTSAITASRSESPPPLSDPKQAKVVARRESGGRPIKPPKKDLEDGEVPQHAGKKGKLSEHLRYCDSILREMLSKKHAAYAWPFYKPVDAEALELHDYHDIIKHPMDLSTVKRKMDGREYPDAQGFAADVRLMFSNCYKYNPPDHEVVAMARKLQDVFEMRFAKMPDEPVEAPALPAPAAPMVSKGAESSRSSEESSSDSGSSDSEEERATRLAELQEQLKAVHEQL
In short: as §2

THP-1 = test: Cell growth inhibition assay (CellTiter-Glo), THP-1; format: cell-based, human; conditions: THP-1 cells, 4 days; for GI50: Homo sapiens, 96 h, half-maximal growth inhibition; for THP-1 TGI: total growth inhibition
In short: as §1

K-562 = test: Cell growth inhibition assay (CellTiter-Glo), K-562; format: cell-based, human; conditions: K-562 cells, 4 days; for GI50: Homo sapiens, K562, 96 h, half-maximal growth inhibition; for K-562 TGI: total growth inhibition
In short: as §1

BRD2 = BRD2 (Homo sapiens (Human), UniProt P25440); test: TR-FRET in-vitro binding assay for BRD2; conditions: 45 nM His-Brd2(60-472), acetyl-histone H4 (AcK 5, 8, 12, 16) peptide
Chain of BRD2 (P25440 60-472): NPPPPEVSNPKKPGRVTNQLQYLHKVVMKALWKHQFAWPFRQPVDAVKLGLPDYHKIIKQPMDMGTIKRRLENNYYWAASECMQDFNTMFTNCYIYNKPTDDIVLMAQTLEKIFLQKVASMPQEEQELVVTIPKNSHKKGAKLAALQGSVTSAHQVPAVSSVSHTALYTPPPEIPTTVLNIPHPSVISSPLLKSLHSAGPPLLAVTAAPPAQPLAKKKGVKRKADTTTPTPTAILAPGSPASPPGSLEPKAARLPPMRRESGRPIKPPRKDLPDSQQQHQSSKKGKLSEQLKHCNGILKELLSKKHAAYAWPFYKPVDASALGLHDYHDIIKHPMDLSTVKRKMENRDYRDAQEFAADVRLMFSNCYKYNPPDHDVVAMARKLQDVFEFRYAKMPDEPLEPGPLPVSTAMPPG
In short: as §2

SMILES | GI50 (MV-4-11) [nM] | IC50 (BRD4) [nM] | IC50 (CREBBP) [nM] | IC50 (BRD3) [nM] | GI50 (THP-1) [nM] | GI50 (K-562) [nM] | IC50 (BRD2) [nM] | MV-4-11 TGI (MV-4-11) [nM] | THP-1 TGI (THP-1) [nM] | K-562 TGI (K-562) [nM]
Cc1cc(N2C(=O)c3cc(-c4cccc(=O)n4C)n(C4CC4)c3C2c2ccc(Cl)cc2)cn(C)c1=O (stereo not shown) [Example 63, 6-(4-chlorophenyl)-1-cyclopropyl-5-(1,5-dimethyl-6-oxo-1,6-dihydropyridin-3-yl)-2-(1-methyl-6-oxo-1,6-dihydropyridin-2-yl)-5,6-dihydropyrrolo[3,4-b]pyrrol-4(1H)-one] | 94.4 | 120 | 180 | 85 | 426 | 680 | 100 | 160 | 788 | >10000
Cc1cc(N2C(=O)c3cc(-c4ccc(=O)n(C)c4)n(C4CC4)c3C2c2ccc(Cl)cc2)cn(C)c1=O (stereo not shown) [Example 67, 6-(4-chlorophenyl)-1-cyclopropyl-5-(1,5-dimethyl-6-oxo-1,6-dihydropyridin-3-yl)-2-(1-methyl-6-oxo-1,6-dihydropyridin-3-yl)-5,6-dihydropyrrolo[3,4-b]pyrrol-4(1H)-one] | 66.7 | 88 | 300 | 85 | 143 | 404 | 42 | 118 | 353 | >10000
Cc1cc(N2C(=O)c3cc(C4CC4)n(C)c3C2c2ccc(Cl)cc2)cn(C)c1=O (stereo not shown) [Example 68, 6-(4-chlorophenyl)-2-cyclopropyl-5-(1,5-dimethyl-6-oxo-1,6-dihydropyridin-3-yl)-1-methyl-5,6-dihydropyrrolo[3,4-b]pyrrol-4(1H)-one] | 28.7 | 63.2 | 620 | 52.2 | 46.8 | 148 | 67.2 | 51.7 | 96 | >10000
Cc1cc(N2C(=O)c3cc(C)n(C)c3C2c2ccc(Cl)cc2)cn(C)c1=O (stereo not shown) [Example 69, 6-(4-chlorophenyl)-5-(1,5-dimethyl-6-oxo-1,6-dihydropyridin-3-yl)-1,2-dimethyl-5,6-dihydropyrrolo[3,4-b]pyrrol-4(1H)-one] | 37.8 | 121 | 1200 | 87 | 65 | 236 | 159 | 84.3 | 144 | >10000
Cc1cc(N2C(=O)c3ccn(C)c3C2c2ccccc2)cn(C)c1=O (stereo not shown) [Example 79, 5-(1,5-dimethyl-6-oxo-1,6-dihydropyridin-3-yl)-1-methyl-6-phenyl-5,6-dihydropyrrolo[3,4-b]pyrrol-4(1H)-one] | 295 | 434 | 26800 | 222 | 396 | 1790 | 660 | 496 | 904 | >10000
Cc1ccc(C2c3c(ccn3C)C(=O)N2c2cc(C)c(=O)n(C)c2)cc1 (stereo not shown) [Example 81, 5-(1,5-dimethyl-6-oxo-1,6-dihydropyridin-3-yl)-1-methyl-6-(p-tolyl)-5,6-dihydropyrrolo[3,4-b]pyrrol-4(1H)-one] | 79.8 | 131 | 4500 | 81.2 | 149 | 721 | 126 | 121 | 300 | >10000
Cc1cc(N2C(=O)c3ccn(C)c3C2c2ccc(F)cc2)cn(C)c1=O (stereo not shown) [Example 82, 5-(1,5-dimethyl-6-oxo-1,6-dihydropyridin-3-yl)-6-(4-fluorophenyl)-1-methyl-5,6-dihydropyrrolo[3,4-b]pyrrol-4(1H)-one] | 104 | 195 | 4700 | 140 | 206 | 618 | 230 | 189 | 397 | >10000
Cn1ccc2c1C(c1ccccc1)N(c1cc(Cl)c(=O)n(C)c1)C2=O (stereo not shown) [Example 86, 5-(5-chloro-1-methyl-6-oxo-1,6-dihydropyridin-3-yl)-1-methyl-6-phenyl-5,6-dihydropyrrolo[3,4-b]pyrrol-4(1H)-one] | 338 | 437 | 18400 | 277 | 392 | 1100 | 433 | 642 | 795.5 | >10000

Further lines, with some results ahead:

GI50 (MV-4-11) [nM] | IC50 (BRD4) [nM] | IC50 (CREBBP) [nM] | IC50 (BRD3) [nM] | GI50 (THP-1) [nM] | GI50 (K-562) [nM] | IC50 (BRD2) [nM] | SMILES | MV-4-11 TGI (MV-4-11) [nM] | THP-1 TGI (THP-1) [nM] | K-562 TGI (K-562) [nM]
118 | 85 | 1500 | 82 | 109 | 353 | 50 | Cn1cc(N2C(=O)c3cc(-c4cccn(C)c4=O)n(C4CC4)c3C2c2ccc(Cl)cc2)cc(Cl)c1=O (stereo not shown) [Example 64, 5-(5-chloro-1-methyl-6-oxo-1,6-dihydropyridin-3-yl)-6-(4-chlorophenyl)-1-cyclopropyl-2-(1-methyl-2-oxo-1,2-dihydropyridin-3-yl)-5,6-dihydropyrrolo[3,4-b]pyrrol-4(1H)-one] | 196 | 215.5 | >10000
76.4 | 89.7 | 1430 | 90.8 | 159 | 294 | 170 | Cc1cc(N2C(=O)c3ccn(C)c3C2c2ccc(Cl)cc2)cn(C)c1=O (stereo not shown) [Example 72, 6-(4-chlorophenyl)-5-(1,5-dimethyl-6-oxo-1,6-dihydropyridin-3-yl)-1-methyl-5,6-dihydropyrrolo[3,4-b]pyrrol-4(1H)-one] | 125 | 301 | >10000
148 | 154 | 1500 | 147 | 146 | 455 | 292 | Cc1cc(N2C(=O)c3ccn(C)c3C2c2ccc(Cl)c(F)c2)cn(C)c1=O (stereo not shown) [Example 80, 6-(4-chloro-3-fluorophenyl)-5-(1,5-dimethyl-6-oxo-1,6-dihydropyridin-3-yl)-1-methyl-5,6-dihydropyrrolo[3,4-b]pyrrol-4(1H)-one] | 267 | 369.5 | >10000
326 | 322 | 7150 | 200 | 634 | 1130 | 273 | Cc1cc(N2C(=O)c3ccn(C)c3C2c2ccc(C#N)cc2)cn(C)c1=O (stereo not shown) [Example 83, 4-(5-(1,5-dimethyl-6-oxo-1,6-dihydropyridin-3-yl)-1-methyl-4-oxo-1,4,5,6-tetrahydropyrrolo[3,4-b]pyrrol-6-yl)benzonitrile] | 636 | 1270 | >10000
158 | 230 | 4700 | 161 | 167 | 548 | 196 | COc1ccc(C2c3c(ccn3C)C(=O)N2c2cc(C)c(=O)n(C)c2)cc1 (stereo not shown) [Example 84, 5-(1,5-dimethyl-6-oxo-1,6-dihydropyridin-3-yl)-6-(4-methoxyphenyl)-1-methyl-5,6-dihydropyrrolo[3,4-b]pyrrol-4(1H)-one] | 338.5 | 419.5 | >10000
